Data taken from patent US7935869B2, “Chimeric gene with several herbicide tolerance genes, plant cell and plant resistant to several herbicides” (Bayer S.A.S., priority 1996, dated 2011).
Like-named read-outs stand apart in the source and are kept apart here.

How the values were obtained:
maize EPSPS mutant Ala = assay: EPSP synthase enzymatic activity, resistance to glyphosate in vitro; type: biochemical
Protocol: (§1) The various EPSP synthase genes are introduced in the form of an NcoI-HindIII cassette into the plasmid is vector pTrc99a (Pharmacia, ref: 27-5007-01) cut with NcoI and HindIII. The recombinant E. coli DH10B overexpressing the various EPSP syntheses are sonicated in 40 ml of buffer per 10 g of culotted cells and washed with this same buffer (200 mM Tris-HCl pH 7.8, 50 mM mercaptoethanol, 5 mM EDTA and 1 mM PMSF), to which 1 g of polyvinylpyrrolidone is added. The suspension is stirred for 15 minutes at 4° C. and then centrifuged for 20 minutes at 27,000 g and at 4° C.
(§2) The supernatant is supplemented with ammonium sulphate so as to bring the solution to 40% saturation with ammonium sulphate. The mixture is centrifuged for 20 minutes at 27,000 g and at 4° C. The new supernatant is supplemented with ammonium sulphate so as to bring the solution to 70% saturation with ammonium sulphate. The mixture is centrifuged for 30 minutes at 27,000 g and at 4° C. The EPSP synthase present in this protein pellet is taken up in 1 ml of buffer (20 mM Tris-HCl pH 7.8 and 50 mM mercaptoethanol). This solution is dialysed overnight against two litres of this same buffer at 4° C.
(§3) The activity of each enzyme as well as its resistance to glyphosate is measured in vitro over 10 minutes at 37° C. in the following reaction mixture: 100 mM maleic acid pH 5.6, 1 mM phosphoenol pyruvate, 3 mM shikimate-3-phosphate (prepared according to Knowles P. P. and Sprinson D. B., 1970, Methods in Enzymol., 17A, 351-352 from Aerobacter aerogenes strain ATCC 25597) and 10 mM potassium fluoride. The enzymatic extract is added at the last moment after the addition of glyphosate whose final concentration varies from 0 to 20 mM.
(§4) The activity is measured by assaying the phosphate liberated according to the technique of Tausky H. A. and Shorr B., 1953, J. Biol. Chem., 202, 675-685.

[1] = tested on: wild-type (WT) maize EPSPS; assay: as above; type: biochemical; settings: 0.12 mM glyphosate; 10 minutes at 37° C., pH 5.6
Protocol: as §1, §2, §3, §4

[2] = tested on: maize EPSPS mutant Ile 102/Ser 106; assay: as above; type: biochemical
Protocol: as §1, §2, §3, §4

[3] = tested on: maize EPSPS mutant Ser106; assay: as above; type: biochemical; settings: 0.12 mM glyphosate
Protocol: as §1, §2, §3, §4

[4] = tested on: maize EPSPS mutant Ala 101/Ile 102; assay: as above; type: biochemical
Protocol: as §1, §2, §3, §4

[5] = biological target: T1, maize EPSPS mutant Ile 102 (Zea mays, UniProt A0A1D6NVZ6, T164I); assay: as above; type: biochemical
T1 sequence (A0A1D6NVZ6 63-506 T164I): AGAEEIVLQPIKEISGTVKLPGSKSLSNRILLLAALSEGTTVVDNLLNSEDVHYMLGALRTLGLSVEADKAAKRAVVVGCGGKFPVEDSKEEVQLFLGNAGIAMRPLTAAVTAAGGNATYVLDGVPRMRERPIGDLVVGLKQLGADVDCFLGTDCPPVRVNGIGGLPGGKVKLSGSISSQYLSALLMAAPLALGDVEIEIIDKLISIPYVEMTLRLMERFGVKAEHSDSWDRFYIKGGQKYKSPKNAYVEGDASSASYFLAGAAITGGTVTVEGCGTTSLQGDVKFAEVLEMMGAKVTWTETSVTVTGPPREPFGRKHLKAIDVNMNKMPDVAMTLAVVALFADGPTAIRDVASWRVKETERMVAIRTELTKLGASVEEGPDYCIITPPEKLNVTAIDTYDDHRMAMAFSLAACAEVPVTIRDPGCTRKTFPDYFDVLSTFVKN
Protocol: as §1, §2, §3, §4

[6] = tested on: PBD6 tobacco plants HPPD + EPSPS; assay: Postemergence tolerance of tobacco, percentage destruction; type: in vivo; settings: 17 days after treatment
Protocol: (§5) In this trial, each test is performed on a sample of 10 plants, 10 plants being kept untreated.
(§6) All the treatments are performed by spraying at the rate of 500 l of spraying mixture per hectare.
(§7) For the postemergence treatment, sowing is performed and then the plants are transplanted in 9 cm×9 cm pots.
The postemergence treatments are carried out at a well developed stage (3-4 leaves). Batches of plants, respectively wild-type and genetically transformed, obtained above are divided into several parts, with:
Under these conditions, the following phytotoxicities are observed 17 days after the treatment, expressed as percentage destruction indicated in the following table, as well as the number of plants per batch and the doses of herbicide(s) expressed in gram of active substance per hectare: […]

[7] = tested on: PBD6 tobacco transformed with pRP 2012; assay: Tolerance of tobacco transformed with chimeric gene pRP 2012 (HPPD + double mutant EPSPS); type: in vivo; settings: under the conditions described in Example 7
Protocol: The chimeric gene pRP 2012 described below is transferred into the PBD6 industrial tobacco according to the transformation and regeneration procedures already described in European Application EP No. 0 508 909.
The regeneration of the PBD6 tobacco (source SEITA France) from foliar explants is carried out on a Murashige and Skoog (MS) basal medium comprising 30 g/l of sucrose and 350 mg/l of cefotaxime and 1 mg/l of isoxaflutole. The foliar explants are removed from is greenhouse plants or in vitro and transformed according to the foliar disc technique (Science 1985, Vol. 227, p. 1229-1231) in three successive stages: the first comprises the induction of shoots on an MS medium supplemented with 30 g/l of sucrose containing 0.05 mg/l of naphthylacetic acid (ANA) and 2 mg/l of benzylaminopurine (BAP) for 15 days and 1 mg/l of isoxaflutole. The green shoots formed during this stage are then developed by culturing on an MS medium supplemented with 30 g/l of sucrose and 1 mg/l of isoxaflutole but containing no hormone, for 10 days. The shoots that have developed are then removed and they are cultured on MS rooting medium with half the content of salts, vitamins and sugars and 1 mg/l of isoxaflutole and containing no hormone. […]
All the plants obtained according to this protocol are analysed by PCR with primers specific for P. fluorescens HPPD. […]

[8] = tested on: wild-type tobacco without tolerance gene; assay: Postemergence tolerance of tobacco, percentage destruction; type: in vivo; settings: 17 days after treatment
Protocol: as §5, §6, §7
(§8) The postemergence treatments are carried out at a well developed stage (3-4 leaves). Batches of plants, respectively wild-type and genetically transformed, obtained above are divided into several parts, with: […]

[9] = tested on: control tobacco, not transformed (PBD6); assay: Greenhouse treatment of non-transformed control tobacco with isoxaflutole; type: in vivo
Protocol: Upon leaving in vitro, the transformed tobacco plantlets were acclimatized in a greenhouse (60% relative humidity, temperature: 20° C. at night and 23° C. during the day) for five weeks and then treated with 4-[4-CF3-2-(methylsulphonyl)benzoyl]-5-cyclopropylisoxazole.
The control tobacco, not transformed and treated with 4-[4-CF3-2-(methylsulphonyl)benzoyl]-5-cyclopropylisooxazole at doses ranging from 50 to 400 g/ha, develop chlorosis in about 72 hours, which intensifies and develops into very pronounced necrosis within one week (covering about 80% of the terminal leaves).

[10] = tested on: PBD6 tobacco overexpressing the P. fluorescens HPPD; assay: Greenhouse treatment of transformed tobacco overexpressing HPPD with isoxaflutole; type: in vivo
Source text: To determine the efficiency of these two chimeric genes, they were transferred into the industrial tobacco PBD6 according to the transformation and regeneration techniques already described in European Application EP No. 0 508 909.
The vector is introduced into the non oncogenic Agrobacterium EHA 101 strain (Hood et al., 1987) carrying the cosmaid pTVK 291 (Komari et al., 1986). The transformation technique is based on the procedure by Horsh R. et al., (1985) Science, 227, 1229-1231.
The regeneration of the PBD6 tobacco (source SEITA France) from foliar explants is carried out on a Murashige and Skoog (MS) basal medium comprising 30 g/l of sucrose and 100 μg/ml of kanamycin. The foliar explants are removed from greenhouse plants or in vitro and transformed according to the foliar disc technique (Science 1985, Vol. 227, p. 1229-1231) in three successive stages: the first comprises the induction of shoots on an MS medium supplemented with 30 g/l of sucrose containing 0.05 mg/l of naphthylacetic acid (ANA) and 2 mg/l of benzylaminopurine (BAP) for 15 days. The shoots formed during this stage are then developed by culturing on an MS medium supplemented with 30 g/l of sucrose but containing no hormone, for 10 days. […]

[11] = tested on: maize genotype 261 2B 459 (progeny of HPPD-transformed plants); assay: Selection of maize seeds on sand after isoxaflutole treatment; type: in vivo; settings: 10 seeds sown
Protocol: (§9) The transformed plants obtained above produced pollen, assumed in part to be transgenic, which fertilized ovules from a nontransgenic wild-type maize. The seeds obtained are selected on sand after treating with isoxaflutole.
(§10) The selection protocol is the following: 800 ml of Fontainebleau sand are placed in a tub with sides 15×20 cm. These tubs are then sprayed with water and kept hydrated by supplying a nutritive solution consisting of 5 ml of Quinoligo (Quinoline) per litre of water. […] The tubs are then placed in culture in a greenhouse.

[12] = tested on: maize genotype 261 2D2 (progeny of HPPD-transformed plants); assay: as above; type: in vivo; settings: 10 seeds sown
Protocol: as §9, §10

[13] = tested on: maize genotype 261 2A2 (progeny of HPPD-transformed plants); assay: as above; type: in vivo; settings: 10 seeds sown
Protocol: as §9, §10

[14] = tested on: PBD6 tobacco plants HPPD + OXY; assay: Postemergence tolerance of tobacco, percentage destruction; type: in vivo; settings: 17 days after treatment
Protocol: as §5, §6, §7, §8

nontransgenic maize = assay: Selection of maize seeds on sand after isoxaflutole treatment; type: in vivo; settings: 100 g/ha, 20 seeds sown
Protocol: as §9
The selection protocol is the following: 800 ml of Fontainebleau sand are placed in a tub with sides 15×20 cm. These tubs are then sprayed with water and kept hydrated by supplying a nutritive solution consisting of 5 ml of Quinoligo (Quinoline) per litre of water. Twenty maize seeds are placed on the tubs, which are then treated with isoxaflutole by spraying at the rate of 100 to 200 g of active substance per hectare (300 or 600 μg of active substance per tub). The tubs are then placed in culture in a greenhouse.

O=C(O)CNCP(=O)(O)O [glyphosate]
inhibition of enzyme activity (maize EPSPS mutant Ala): not inhibited
inhibition of enzyme activity (maize EPSPS mutant Ala; 1.2 mM glyphosate): not being inhibited
inhibition of enzyme activity [1]: 85%
inhibition of enzyme activity ([2]; 0.12 mM glyphosate): not or not strongly inhibited
inhibition of enzyme activity ([2]; 1.2 mM glyphosate): not being inhibited
reduction of enzyme activity ([2]; 20 mM glyphosate): not reduced
inhibition of enzyme activity [3]: 50%
inhibition of enzyme activity ([4]; 0.12 mM glyphosate): not or not strongly inhibited
inhibition of enzyme activity ([4]; 1.2 mM glyphosate): not being inhibited
inhibition of enzyme activity ([4]; up to concentrations of 10 m glyphosate): not inhibited
inhibition of enzyme activity ([5]; 0.12 mM glyphosate): not or not strongly inhibited
IC50 ([5]; 10 minutes at 37° C., pH 5.6, read-out: glyphosate concentration to inhibit the enzyme by 50%): 1200 µM
phytotoxicity, percentage destruction ([6]; 800 g/ha postemergence): 0%
phytotoxicity, percentage destruction ([6]; 1200 g/ha postemergence): 0%
tolerance [7]: tolerant
phytotoxicity, percentage destruction ([8]; 800 g/ha postemergence): 100%
phytotoxicity, percentage destruction ([8]; 1200 g/ha postemergence): 100%

CS(=O)(=O)c1cc(C(F)(F)F)ccc1C(=O)c1cnoc1C1CC1 [isoxaflutole, 4-[4-CF3-2-(methylsulphonyl)benzoyl]-5-cyclopropylisoxazole]
time to development of chlorosis ([9]; doses ranging from 50 to 400 g/ha): about 72 hours
very pronounced necrosis, share of the terminal leaves covered ([9]; within one week, doses 50 to 400 g/ha): about 80%
protection against treatment ([10]; dose of 400 g/ha): very well protected
protection against treatment, symptoms ([10]; enzyme overexpressed in the chloroplast (vector pRP V)): perfectly protected and shows no symptom
phytotoxicity, percentage destruction ([6]; 200 g/ha postemergence): 2%
phytotoxicity, percentage destruction ([6]; 400 g/ha postemergence): 3%
Number of dead plants ([11]; 100 g/ha): 5
Number of germinated plants ([11]; 100 g/ha): 10
Number of surviving plants ([11]; 100 g/ha): 5
Number of dead plants ([11]; 200 g/ha): 4
Number of germinated plants ([11]; 200 g/ha): 9
Number of surviving plants ([11]; 200 g/ha): 5
Number of dead plants ([12]; 100 g/ha): 6
Number of germinated plants ([12]; 100 g/ha): 9
Number of surviving plants ([12]; 100 g/ha): 3
Number of dead plants ([12]; 200 g/ha): 7
Number of germinated plants ([12]; 200 g/ha): 10
Number of surviving plants ([12]; 200 g/ha): 3
Number of dead plants ([13]; 100 g/ha): 3
Number of germinated plants ([13]; 100 g/ha): 5
Number of surviving plants ([13]; 100 g/ha): 2
Number of dead plants ([13]; 200 g/ha): 7
Number of germinated plants ([13]; 200 g/ha): 7
Number of surviving plants ([13]; 200 g/ha): 0
tolerance [7]: tolerant
phytotoxicity, percentage destruction ([14]; 200 g/ha postemergence): 4%
phytotoxicity, percentage destruction ([14]; 400 g/ha postemergence): 5%
phytotoxicity, percentage destruction ([8]; 200 g/ha postemergence): 75%
phytotoxicity, percentage destruction ([8]; 400 g/ha postemergence): 85%
Number of dead plants (nontransgenic maize): 20
Number of germinated plants (nontransgenic maize): 20
Number of surviving plants (nontransgenic maize): 0
